Molecules are shown by their SMILES.

Type in all cases: biochemical
The target in one test is T1, human Tyro3 (Homo sapiens, UniProt Q06418).
T1 construct: GST (N); made in house; host or cells: Sf9 insect cells (baculovirus)
T1 sequence (Q06418 455-890 limits assumed): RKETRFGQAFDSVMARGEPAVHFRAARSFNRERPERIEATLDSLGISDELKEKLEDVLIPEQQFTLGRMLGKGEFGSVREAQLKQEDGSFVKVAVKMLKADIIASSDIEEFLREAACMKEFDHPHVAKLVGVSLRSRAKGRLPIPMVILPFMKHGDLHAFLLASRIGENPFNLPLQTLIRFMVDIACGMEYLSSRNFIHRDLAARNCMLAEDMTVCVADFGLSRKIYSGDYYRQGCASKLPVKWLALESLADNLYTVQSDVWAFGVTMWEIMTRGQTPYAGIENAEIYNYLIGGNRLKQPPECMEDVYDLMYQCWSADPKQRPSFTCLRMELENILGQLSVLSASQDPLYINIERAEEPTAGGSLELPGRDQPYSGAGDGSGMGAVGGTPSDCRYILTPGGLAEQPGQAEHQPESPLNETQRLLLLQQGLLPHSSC
Kind of test: Kinase enzymatic activity assay (33P-radiolabeled phosphate transfer), Tyro3. Conditions: recombinant human Tyro3 (455-end), poly(4:1 glu:tyr) substrate, 30 minutes. From the text: (§1) The identification of compounds of the invention as Tyro3, Axl or Mer inhibitors was readily accomplished using the recombinant human Tyro3, Axl and Mer proteins and employing the ^33P-radiolabeled phosphate transfer assay for which the procedure is known to someone skilled in the art or as described in Example 9.
(§2) Recombinant human Tyro3 (455-end, the gene accession number NM_006293), human Axl (473-end, the gene accession number NM_021913) and human Mer (578-872, the gene accession number NM_006343) were independently expressed by baculovirus in Sf9 insect cells using an N-terminal GST tag. The recombinant proteins were stored at −70° C. in a medium containing 50 mM Tris-HCl, pH 7.5, 150 mM NaCl, 10 mM glutathione, 0.1 mM EDTA, 0.25 mM DTT, 0.1 mM PMSF and 25% glycerol. The recombinant proteins were aliquoted into smaller quantities after centrifugation to avoid repeated handling and multiple freeze/thaw cycles for the most favorable performance.
(§3) Kinase Assay Buffer: This buffer solution consisted of the following components: 25 mM MOPS, pH 7.2, 12.5 mM β-glycerol-phosphate, 25 mM MgCl2, 5 mM EGTA, 2 mM EDTA and DTT 0.25 mM which was added prior to use.
(§4) Kinase Dilution Buffer: Kinase Assay Buffer was diluted at a 1:4 ratio (5× dilution) with distilled water.
(§5) [^33P]-ATP assay cocktail: In a designated radioactive working area, a 250 μM [^33P]-ATP assay cocktail was prepared by the addition of the following components: 150 μL of 10 mM ATP stock solution, 100 μL [^33P]-ATP (1 mci/100 μL), and 5.75 mL of kinase assay buffer. This solution was stored in 1 mL aliquots at −20° C.
(§6) ATP stock solution (10 mM): The ATP stock solution was prepared by dissolving 55 mg of ATP in 10 mL of kinase assay buffer. It was stored in 200 μL aliquots at −20° C.
(§7) Active Kinase Stock Solution: The active recombinant kinase protein (0.1 μg/μL) was diluted with Kinase Dilution Buffer and the activity was assayed using a serial dilution method. The specific activity is expressed in nmoL/min/mg.
(§8) Substrates: poly(4:1 glu:tyr) is the substrate used for each kinase Tyro3, Axl and Mer: The peptide substrate was dissolved in water to give the final concentration of 1 mg/mL.
(§9) Test compound solution: Test compound was dissolved in DMSO to obtain a 10 mM solution. The assay solution was prepared by adding 5 μL of this solution to […] of 10% DMSO/water to obtain the final concentration of 50 μM.
(§10) The enzymatic activity of all three kinases was determined as follows. Using a 96-well plate, the wells were divided into three categories: Blank wells, […] and Test wells. In Test wells, 5 μL of the test compound solution and 5 μL of the substrate solution were added. In Control wells, 5 μL of 10% DMSO/water and 5 μL of the substrate solution were added. In Blank wells, 10 μL of 10% DMSO/water was added. To each well was added 10 μL of Active Kinase Stock Solution to make up the volume in each well to 20 μL. All test samples, controls and blanks were run in duplicate. The reaction was initiated by the addition of 5 μL of [^33P]-ATP assay cocktail, bringing the final volume up to 25 μL in every well. The mixture was incubated at room temperature for 30 minutes. The reaction was terminated by transferring 10 μL of the reaction mixture into a Millipore MultiScreen filter plate (cat. number MSPHN6B50). The filter plate was washed in a 1% phosphoric acid solution with constant gentle shaking for 15 minutes and this step was repeated once. After the plate was dried in air, scintillation fluid was added to each well and the radioactivity in each well in CPM was counted by a Microbeta TriLux. The corrected CPM in each test well was determined by subtracting the average value of Blank well values. Percentage of inhibition of the kinase enzymatic activity by the test compound was determined using the following formula: […]
(§11) The IC50 values were determined in a similar way following a serial dilution of the test compound. […]

Another test concerns the target T2, human Axl (Homo sapiens, UniProt P30530).
T2 construct: GST (N); made in house; host or cells: Sf9 insect cells (baculovirus)
T2 sequence (P30530 473-894 limits assumed): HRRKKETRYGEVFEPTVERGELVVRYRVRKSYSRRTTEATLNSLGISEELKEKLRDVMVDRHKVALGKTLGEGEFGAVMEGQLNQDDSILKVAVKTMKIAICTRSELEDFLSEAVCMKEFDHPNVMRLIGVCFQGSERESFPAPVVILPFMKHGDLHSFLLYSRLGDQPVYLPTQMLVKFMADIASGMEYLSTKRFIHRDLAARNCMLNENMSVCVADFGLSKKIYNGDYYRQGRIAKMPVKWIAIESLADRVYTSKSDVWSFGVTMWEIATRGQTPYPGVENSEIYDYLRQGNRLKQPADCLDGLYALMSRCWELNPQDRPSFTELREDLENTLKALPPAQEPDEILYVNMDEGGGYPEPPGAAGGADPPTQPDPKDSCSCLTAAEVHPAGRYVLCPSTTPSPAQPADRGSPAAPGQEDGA
Kind of test: Kinase enzymatic activity assay (33P-radiolabeled phosphate transfer), Axl. Conditions: recombinant human Axl (473-end), poly(4:1 glu:tyr) substrate, 30 minutes.
Text: as §1, §2, §3, §4, §5, §6, §7, §8, §9, §10, §11

In the next test the target is T3, human Mer (Homo sapiens, UniProt Q12866).
T3 construct: GST (N); made in house; host or cells: Sf9 insect cells (baculovirus)
T3 sequence (Q12866 578-872): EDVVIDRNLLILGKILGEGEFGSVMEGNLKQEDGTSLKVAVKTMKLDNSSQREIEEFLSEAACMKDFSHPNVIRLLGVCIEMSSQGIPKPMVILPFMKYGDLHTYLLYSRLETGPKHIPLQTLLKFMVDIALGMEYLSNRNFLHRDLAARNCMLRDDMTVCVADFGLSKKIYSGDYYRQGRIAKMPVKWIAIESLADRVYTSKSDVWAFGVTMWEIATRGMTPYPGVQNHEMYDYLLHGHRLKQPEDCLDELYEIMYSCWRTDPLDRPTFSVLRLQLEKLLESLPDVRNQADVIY
As to the kind of experiment: Kinase enzymatic activity assay (33P-radiolabeled phosphate transfer), Mer. Conditions: recombinant human Mer (578-872), poly(4:1 glu:tyr) substrate, 30 minutes.
Text: as §1, §2, §3, §4, §5, §6, §7, §8, §9, §10, §11

As to `Fc1ccc(Oc2ncnc3cc(OCCN4CCCCC4)cc(OC4CCOCC4)c23)c(Cl)c1` [Example 1, 4-(2-chloro-4-fluorophenoxy)-7-(2-(piperidin-1-yl)ethoxy)-5-((tetrahydro-2H-pyran-4-yl)oxy)quinazoline], the values for the IC50 on human Tyro3, at human Axl and at human Mer were less than 500 nM, 1000 to 10000 nM and less than 500 nM, respectively.
As for `CN1CCC(CCOc2cc(OC3CCOCC3)c3c(Oc4ccc(F)cc4Cl)ncnc3c2)CC1` [Example 2, 4-(2-chloro-4-fluorophenoxy)-7-(2-(1-methylpiperidin-4-yl)ethoxy)-5-((tetrahydro-2H-pyran-4-yl)oxy)quinazoline], the values for the half-maximal inhibitory concentration (IC50) on human Tyro3, on human Axl and on human Mer were less than 500 nM, 1000 to 10000 nM and less than 500 nM, respectively.
Take `Fc1ccc(Oc2ncnc3cc(OCCN4CCOCC4)cc(OC4CCOCC4)c23)c(Cl)c1` [Example 2.1, 4-(2-((4-(2-chloro-4-fluorophenoxy)-5-((tetrahydro-2H-pyran-4-yl)oxy)-quinazolin-7-yl)oxy)ethyl)morpholine]: the values for the half-inhibitory concentration (IC50) at human Tyro3, on human Axl and at human Mer were 1000 to 10000 nM, 1000 to 10000 nM and 500 to 1000 nM, respectively.
As for `CN(C)CCOCCOc1cc(OC2CCOCC2)c2c(Oc3ccc(F)cc3Cl)ncnc2c1` [Example 2.2, 2-(2-((4-(2-chloro-4-fluorophenoxy)-5-((tetrahydro-2H-pyran-4-yl)oxy)quinazolin-7-yl)oxy)ethoxy)-N,N-dimethylethanamine], the IC50 on human Tyro3 was less than 500 nM; at human Axl, 1000 to 10000 nM; at human Mer, less than 500 nM.
As for `COCCN(C)CCOc1cc(OC2CCOCC2)c2c(Oc3ccc(F)cc3Cl)ncnc2c1` [Example 2.3, 2-((4-(2-chloro-4-fluorophenoxy)-5-((tetrahydro-2H-pyran-4-yl)oxy)quinazolin-7-yl)oxy)-N-(2-methoxyethyl)-N-methylethanamine], the IC50 at human Tyro3 was 500 to 1000 nM; on human Axl, greater than 10000 nM; at human Mer, 1000 to 10000 nM.
For the compound `COCCOCCOc1cc(OC2CCOCC2)c2c(Oc3ccc(F)cc3Cl)ncnc2c1` [Example 2.4, 4-(2-chloro-4-fluorophenoxy)-7-(2-(2-methoxyethoxy)ethoxy)-5-((tetrahydro-2H-pyran-4-yl)oxy)quinazoline], the half-maximal inhibitory concentration (IC50) is 1000 to 10000 nM at human Tyro3, greater than 10000 nM on human Axl and 1000 to 10000 nM at human Mer.
On to `Fc1ccc(Oc2ncnc3cc(OCCCN4CCOCC4)cc(OC4CCOCC4)c23)c(Cl)c1` [Example 2.5, 4-(3-((4-(2-chloro-4-fluorophenoxy)-5-((tetrahydro-2H-pyran-4-yl)oxy)quinazolin-7-yl)oxy)propyl)morpholine], for which the IC50 at human Tyro3 is less than 500 nM; on human Axl, 500 to 1000 nM; on human Mer, less than 500 nM.
For `CC1(C)OC[C@H](COc2cc(OC3CCOCC3)c3c(Oc4ccc(F)cc4Cl)ncnc3c2)O1` [Example 2.9, (S)-4-(2-chloro-4-fluorophenoxy)-7-((2,2-dimethyl-1,3-dioxolan-4-yl)methoxy)-5-((tetrahydro-2H-pyran-4-yl)oxy)quinazoline], the IC50 on human Tyro3, at human Axl and on human Mer was 1000 to 10000 nM in each case.
In the case of `COCCN1CCN(c2cc(OC3CCOCC3)c3c(Oc4ccc(F)cc4Cl)ncnc3c2)CC1` [Example 2.10, 4-(2-chloro-4-fluorophenoxy)-7-(4-(2-methoxyethyl)piperazin-1-yl)-5-((tetrahydro-2H-pyran-4-yl)oxy)quinazoline], the IC50 on human Tyro3 was less than 500 nM; at human Axl it was 1000 to 10000 nM; on human Mer, 500 to 1000 nM.
In the case of `COc1cc(OCCN2CCN(C)CC2)cc2ncnc(Oc3ccc(F)cc3Cl)c12` [Example 2.12, 4-(2-chloro-4-fluorophenoxy)-5-methoxy-7-(2-(4-methylpiperazin-1-yl)ethoxy)quinazoline], the half-maximal inhibitory concentration (IC50) on human Tyro3 is less than 500 nM; on human Axl, 1000 to 10000 nM; on human Mer, 1000 to 10000 nM.
With `COc1cc(OCC2CCN(C)CC2)cc2ncnc(Nc3nc(C(F)(F)F)cs3)c12` [Example 2.13, N-(5-methoxy-7-((1-methylpiperidin-4-yl)methoxy)quinazolin-4-yl)-4-(trifluoromethyl)thiazol-2-amine], the IC50 at human Tyro3 is greater than 10000 nM; at human Axl, less than 500 nM; on human Mer, greater than 10000 nM.
As to `CN1CCN(CCOc2cc(OC3CCOCC3)c3c(Nc4nccs4)ncnc3c2)CC1` [Example 2.14, N-(7-(2-(4-methylpiperazin-1-yl)ethoxy)-5-((tetrahydro-2H-pyran-4-yl)oxy)quinazolin-4-yl)thiazol-2-amine], the figures for the IC50 on human Tyro3, at human Axl and at human Mer were 1000 to 10000 nM, less than 500 nM and less than 500 nM, respectively.
As to `CN(C)CCN(C)CCOc1cc(OC2CCOCC2)c2c(Oc3ccc(F)cc3Cl)ncnc2c1` [Example 2.15, N^1-(2-((4-(2-chloro-4-fluorophenoxy)-5-((tetrahydro-2H-pyran-4-yl)oxy)quinazolin-7-yl)oxy)ethyl)-N^1,N^2,N^2-trimethylethane-1,2-diamine], the values for the IC50 on human Tyro3, on human Axl and at human Mer were 500 to 1000 nM, 1000 to 10000 nM and 500 to 1000 nM, respectively.
Turning to `CN(C)CCC1CCN(c2cc(OC3CCOCC3)c3c(Nc4nc(C(F)(F)F)cs4)ncnc3c2)CC1` [Example 2.44, N-(7-(4-(2-(dimethylamino)ethyl)piperidin-1-yl)-5-((tetrahydro-2H-pyran-4-yl)oxy)quinazolin-4-yl)-4-(trifluoromethyl)thiazol-2-amine], the values for the concentration for half-maximal inhibition (IC50) on human Tyro3 and at human Axl were 1000 to 10000 nM and less than 500 nM, respectively.

Source of the values: US9771333B2, “Quinazoline derivatives as TAM family kinase inhibitors” (SIGNALCHEM LIFESCIENCES CORP., priority 2013, dated 2017).
